Reference: patent US4629793A, “2,3-di-substituted-5,6-dihydroimidazo [2,1-b] thiazole, its salts, production thereof and anti-inflammatory agent containing the same” (Toyo Jozo Kabushiki Kaisha, priority 1981, dated 1986)

system: not listed separately; assay: Anti-carrageenin edema action (oral, hind foot edema); assay type: in vivo, Wister rats; details: Rattus norvegicus, po, 3 h, minimum dose with significant inhibition of edema 3 hours after carrageenin injection; p.o. one hour before carrageenin
Method: Fasting Wister rats, male, 5-6 weeks in age, five in one group, were injected subcutaneously in the sole of the caudal foot with 1% lambda carrageenin (0.05 ml), and the increase in the volume of the foot was measured at alliquot times. Then the compound of the invention was suspended in 0.3% CMC and administered orally one hour before carrageenin injection. 0.3% CMC alone was administered as a control.

Q: With CC1=C(C(=O)Nc2ccccc2)SC2=NCCN21 [Compound 1, 2-phenylcarbamoyl-3-methyl-5,6-dihydro-imidazo [2,1-b] thiazole] as the compound, how does the minimal effective dose read?
A: 100 mg/kg

Q: With CC1=C(C(=O)Nc2ccccc2)SC2=NCCN21.Cl [Compound 2, 2-phenylcarbamoyl-3-methyl-5,6-dihydro-imidazo [2,1-b] thiazole hydrochloride] as the compound, how does the minimal effective dose read?
A: 50 mg/kg

Q: Which minimal effective dose does the source give for CC1=C(C(=O)Nc2ccccc2Cl)SC2=NCCN21.Cl [Compound 4, 2-(2-chlorophenylcarbamoyl)-3-methyl-5,6-dihydroimidazo [2,1-b] thiazole hydrochloride] here?
A: < 25 mg/kg

Q: For CC1=C(C(=O)Nc2ccc(Cl)cc2)SC2=NCCN21 [Compound 5], which minimal effective dose is on record?
A: 50 mg/kg

Q: For CC1=C(C(=O)Nc2cc(Cl)ccc2Cl)SC2=NCCN21 [Compound 7, 2-(2,5-dichlorophenylcarbamoyl)-3-methyl-5,6-dihydroimidazo [2,1-b] thiazole], which minimal effective dose is on record?
A: 100 mg/kg

Q: For CC1=C(C(=O)Nc2ccc(C)cc2Cl)SC2=NCCN21 [Compound 10], which minimal effective dose is on record?
A: 50 mg/kg

Q: Which minimal effective dose does the source give for CCc1ccccc1NC(=O)C1=C(C)N2CCN=C2S1 [Compound 11] here?
A: 50 mg/kg

Q: With CC1=C(C(=O)Nc2ccc(Cl)cc2C)SC2=NCCN21 [Compound 13] as the compound, how does the minimal effective dose read?
A: 50 mg/kg

Q: With CCOc1ccc(NC(=O)C2=C(C)N3CCN=C3S2)cc1 [Compound 14] as the compound, how does the minimal effective dose read?
A: 50 mg/kg

Q: For CC1=C(C(=O)Nc2ccc(Cl)c(Cl)c2)SC2=NCCN21.Cl [Compound 15, 2-(3,4-dichlorophenylcarbamoyl)-3-methyl-5,6-dihydroimidazo [2,1-b] thiazole hydrochloride], which minimal effective dose is on record?
A: < 25 mg/kg

Q: With CC1=C(C(=O)Nc2ccc(Br)cc2)SC2=NCCN21 [Compound 16] as the compound, how does the minimal effective dose read?
A: 50 mg/kg

Q: For CC1=C(C(=O)Nc2c(Cl)cc(Cl)cc2Cl)SC2=NCCN21 [Compound 19], which minimal effective dose is on record?
A: 100 mg/kg

Q: Which minimal effective dose does the source give for COc1cc(OC)c(NC(=O)C2=C(C)N3CCN=C3S2)cc1Cl [Compound 21] here?
A: 100 mg/kg

Q: For COc1ccc(Cl)cc1NC(=O)C1=C(C)N2CCN=C2S1 [Compound 22], which minimal effective dose is on record?
A: 100 mg/kg

Q: Which minimal effective dose does the source give for CC1=C(C(=O)Nc2ccc(Cl)c(Cl)c2)SC2=NCCN21 [Compound 30] here?
A: < 25 mg/kg

Q: For CC1=C(C(=O)Nc2ccc(Cl)cc2Cl)SC2=NCCN21 [Compound 32], which minimal effective dose is on record?
A: 50 mg/kg

same assay, conditions: minimum dose with significant inhibition of edema 3 hours after carrageenin injection; p.o. one hour before carrageenin

Q: For CC1=C(C(=O)Nc2ccc(Cl)cc2)SC2=NCCN21 [Compound 6], which Minimum effective dose is on record?
A: < 25 mg/kg, p.o.

system: not listed separately; assay: Acute toxicity, oral; details: mouse, in vivo, mice, p.o.

Q: Which LD50 does the source give for CC1=C(C(=O)Nc2ccc(Cl)c(Cl)c2)SC2=NCCN21.Cl [Compound 15, 2-(3,4-dichlorophenylcarbamoyl)-3-methyl-5,6-dihydroimidazo [2,1-b] thiazole hydrochloride] here?
A: > 4000 mg/kg

system: not listed separately; assay: Adjuvant arthritis (chronic inflammation), oral; assay type: in vivo; details: administered orally, rats

Q: With CC1=C(C(=O)Nc2ccc(Cl)c(Cl)c2)SC2=NCCN21.Cl [Compound 15, 2-(3,4-dichlorophenylcarbamoyl)-3-methyl-5,6-dihydroimidazo [2,1-b] thiazole hydrochloride] as the compound, how does the “inhibited adjuvant arthritis, at a dose of” value read?
A: 1 to 10 mg/kg

system: not listed separately; assay: Analgesic action, acetic acid stretching method, oral; assay type: in vivo; details: administered orally in mice

Q: Which “analgesic action, at a dose of” value does the source give for CC1=C(C(=O)Nc2ccc(Cl)c(Cl)c2)SC2=NCCN21.Cl [Compound 15, 2-(3,4-dichlorophenylcarbamoyl)-3-methyl-5,6-dihydroimidazo [2,1-b] thiazole hydrochloride] here?
A: 25 mg/kg

system: bovine serum albumin; assay: not given; details: known agents, stated "in general"; cited from earlier work

Q: For CC(C)(S)[C@@H](N)C(=O)O [D-penicillamine], which “effect on heat denaturation of bovine serum albumin” value (“effect on heat denaturation” below) is on record?
A: do not inhibit the heat denaturation of bovine serum albumin but rather stimulate the protein heat denaturation

Q: Which “effect on heat denaturation” value does the source give for Cn1cnc([N+](=O)[O-])c1Sc1ncnc2nc[nH]c12 [azathioprine] here?
A: do not inhibit the heat denaturation of bovine serum albumin but rather stimulate the protein heat denaturation

Q: For c1ccc([C@H]2CN3CCSC3=N2)cc1 [levamisol], which “effect on heat denaturation” value is on record?
A: do not inhibit the heat denaturation of bovine serum albumin but rather stimulate the protein heat denaturation

Q: Which “effect on heat denaturation” value does the source give for gold sodium thiomalate here?
A: do not inhibit the heat denaturation of bovine serum albumin but rather stimulate the protein heat denaturation
